This is an account of results in the NIST ThermoML archive (doi:10.1016/j.jct.2018.05.023).

The conditions of series [1]: Crystal; DTA.
Series [2] in a line: Molar enthalpy of transition or fusion. To be noted: Crystal; DSC.

Numbers after ± are expanded uncertainties.

Consider `CCCCCCCCCCCC` [dodecane], for which the Normal melting temperature in series [1] was -9.4 ± 1.1 °C. Still for that read-out and setting: for `CCCCCCCCCCCCCCCC` [hexadecane] the value was 18 ± 1.1 °C. In the case of `[Ga]` [gallium], the “Molar enthalpy of transition or fusion” value in series [2] was determined as 1.39 ± 0.12 kcal/mol. Moreover, in series [1], the Normal melting temperature is 30.2 ± 1.1 °C. Turning to `CCCCCCCCCCCCCC` [tetradecane], the Normal melting temperature in series [1] was determined as 5.8 ± 1.1 °C. The same measure, in the same setting: with `CCCCCCCCCCCCCCCCCCCC` [eicosane] the figure was 35.0 ± 1.1 °C; with `C1CCCCC1` [cyclohexane], 7 ± 1.1 °C.

Turning to `O` [water], in series [1], the Normal melting temperature came to 0.4 ± 1.1 °C.
